Assay results: US7176205B2, “Bi-pyridinyl derivatives as NK-1 antagonists” (Hoffmann-La Roche Inc., priority 2005, dated 2007)
Converted amounts (≈) assume the structure as drawn.

What was measured:
Equilibrium solubility = type: physicochemical; conditions: citrate buffer, aqueous buffer, thermodynamic from solid; pH 4.2, 0.15 M Citrat-buffer, 21° C.
Protocol: Method Description Equilibrium Solubility
Equilibrium solubility values were determined at pH 4.2 (0.15 M Citrat-buffer). A known amount of drug, generally 1–2 mg, was added to 250 μl of buffer (glass tubes) and the resulting suspension was stirred for 2 h (21° C.), after 5 minutes of sonification. The pH of the solution was checked and corrected if necessary (in case of pH correction, the solution was once more shaken and equilibrated) and after 24 h the suspension was filtered through a 0.65-μm filter. The filtered solution was then assayed by HPLC to determine the drug concentration. In cases where the drug had completely dissolved in the buffer, the value for equilibrium solubility was assumed to be higher than the value determined by HPLC and was reported as such. Stock solutions (˜1 mg/ml) in DMSO were used in the preparation of a calibration curve in the related buffer using HPLC analytics.

human NK-1 receptor = target: T1, human NK-1 receptor (Homo sapiens, UniProt P25103); assay: NK-1 receptor binding, [3H]substance P displacement; conditions: human NK-1 receptors in CHO cells, [3H]substance P 0.6 nM; read-out: pKi(NK-1) (converted)
T1 construct: expressed in transfected cells; host or cells: CHO cells infected using the Semliki virus expression system; membrane suspension
T1 sequence (P25103 whole entry): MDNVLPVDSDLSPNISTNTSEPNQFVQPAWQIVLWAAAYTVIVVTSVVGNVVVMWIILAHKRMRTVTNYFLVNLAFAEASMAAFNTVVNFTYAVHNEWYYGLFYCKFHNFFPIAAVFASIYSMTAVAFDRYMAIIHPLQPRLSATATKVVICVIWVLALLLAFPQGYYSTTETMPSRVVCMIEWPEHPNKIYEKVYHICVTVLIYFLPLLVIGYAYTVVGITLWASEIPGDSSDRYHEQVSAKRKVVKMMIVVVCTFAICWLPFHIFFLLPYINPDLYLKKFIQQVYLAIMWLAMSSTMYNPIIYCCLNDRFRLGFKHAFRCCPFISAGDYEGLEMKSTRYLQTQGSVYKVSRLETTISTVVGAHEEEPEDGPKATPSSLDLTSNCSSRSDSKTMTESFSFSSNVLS
Protocol: The affinity of test compounds for the NK-1 receptor was evaluated at human NK-1 receptors in CHO cells infected with the human NK-1 receptor (using the Semliki virus expression system) and radiolabelled with [^3H]substance P (final concentration 0.6 nM). Binding assays were performed in HEPES buffer (50 mM, pH 7.4) containing BSA (0.04%) leupeptin (8 μg/ml), MnCl2 (3 mM) and phosphoramidon (2 μM). Binding assays consisted of 250 μl of membrane suspension (1.25×10^5 cells/assay tube), […] of buffer of displacing agent and 125 μl of [^3H]substance P. Displacement curves were determined with at least seven concentrations of the compound. The assay tubes were incubated for 60 min at room temperature after which time the tube contents were rapidly filtered under vacuum through GF/C filters presoaked for 60 min with PEI (0.3%) with 2×2 ml washes of HEPES buffer (50 mM, pH 7.4). The radioactivity retained on the filters was measured by scintillation counting. All assays were performed in triplicate in at least 2 separate experiments.

| solubility at 24 h (Equilibrium solubility) [µg/mL] | Ki (human NK-1 receptor) [nM] | Structure (SMILES) |
| --- | --- | --- |
| 495 (≈ 0.899 mM) | – | Cc1ccccc1-c1cc(N2CCN(C)CC2)ncc1C(=O)N(C)Cc1cc(C(F)(F)F)cc(C(F)(F)F)c1 [EP 1 035 115A1example 12, reference compound] |
| 26 (≈ 0.0449 mM) | 0.977 | Cc1ccccc1-c1cc(N2CCN(C)CC2)ncc1N(C)C(=O)C(C)(C)c1cc(C(F)(F)F)cc(C(F)(F)F)c1 [EP 1 035 115A1example 14, reference compound] |
| 13700 (≈ 24.8 mM) | 2.75 | Cc1ncccc1-c1cc(N2CCN(C)CC2)ncc1C(=O)N(C)Cc1cc(C(F)(F)F)cc(C(F)(F)F)c1 [Example 1, 2-Methyl-6′-(4-methyl-piperazin-1-yl)-[3,4′]bipyridinyl-3′-carboxylic acid (3,5-bis-trifluoromethyl-benzyl)-methyl-amide] |
| 7500 (≈ 12.9 mM) | 1.1 | Cc1ncccc1-c1cc(N2CCN(C)CC2)ncc1N(C)C(=O)C(C)(C)c1cc(C(F)(F)F)cc(C(F)(F)F)c1 [Example 2, 2-(3,5-Bis-trifluoromethyl-phenyl)-N-methyl-N-[2-methyl-6′-(4-methyl-piperazin-1-yl)-[3,4′]bipyridinyl-3′-yl]-isobutyramide] |
